No end group written: not given here.
Assays:
CRF1 receptor (hCRF1α) [1] = target: T1, CRF1 receptor (hCRF1α) (Homo sapiens, UniProt P34998); assay: IP1 accumulation (IP-one Gq) in Cos7 cells transfected with hCRF1α, agonist stimulation; type: cell-based
T1 construct: host or cells: Cos7 cells, transient transfection (PEI), pcDNA3.0/3.1 vector
T1 sequence (P34998 24-415): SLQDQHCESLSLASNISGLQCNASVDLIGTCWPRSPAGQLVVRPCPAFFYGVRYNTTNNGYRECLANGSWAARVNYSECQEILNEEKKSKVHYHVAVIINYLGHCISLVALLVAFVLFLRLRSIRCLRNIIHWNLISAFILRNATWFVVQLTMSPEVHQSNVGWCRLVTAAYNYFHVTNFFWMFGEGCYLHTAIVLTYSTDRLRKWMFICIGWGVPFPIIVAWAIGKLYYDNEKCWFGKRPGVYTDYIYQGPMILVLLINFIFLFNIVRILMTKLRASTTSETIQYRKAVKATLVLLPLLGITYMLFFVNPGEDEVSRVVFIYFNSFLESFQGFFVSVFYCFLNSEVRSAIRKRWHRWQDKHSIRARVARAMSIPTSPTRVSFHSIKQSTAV
Text: (§1) Plasmids containing hCRF1α and hCRF2α (GenBank accession numbers AY457172 and AY449734) were obtained from the cDNA Resource Centre (Bloomsburg University) and are referred to as CRF1 and CRF2 in this manuscript. Hemagglutinin (HA) epitope‐tagged human Calcitonin (CT) receptor (CT(a) splice variant) and myc‐tagged human RAMP1 were used as described previously. ^27 HA‐tagged human calcitonin receptor‐like receptor (CLR), N‐terminal FLAG‐tagged human RAMP3 and N‐terminal myc‐tagged human RAMP3 were a gift from Professor David Poyner (Aston University) and Professor Patrick Sexton (Monash University), respectively. […]
(§2) Cos7, HEK‐293S, and HEK‐293T cells were cultured as described previously. ^28 , ^29 Cos7 cells were originally supplied by the ATCC to Associate Professor Nigel Birch (University of Auckland). […] For transfection, cells were counted (Countess CounterTM; Life Technologies) and plated at a density of 20 000 cells per well in 96‐well plates. […]
The IP‐one Gq assay kit (Cisbio) was used to quantify accumulated myo‐inositol‐1‐phosphate (IP1), a by‐product of IP3 produced after receptor‐mediated Gαq activation in Cos7 and HEK‐293S cells. […] Fifteen microliters of sample was then transferred to a 384‐well optiplate and read by an Envision plate reader (PerkinElmer). IP1 concentrations were calculated from a standard curve generated in duplicate. […]

CRF1 receptor (hCRF1α) [2] = target: T1, CRF1 receptor (hCRF1α); assay: ERK1/2 phosphorylation (AlphaLISA Surefire Ultra) in Cos7 cells transfected with hCRF1α; type: cell-based
Text: as §1, with “respectively. N‐terminal FLAG‐tagged human RAMP2 was used as described previously. ^28 All receptors and RAMPs were cloned in pcDNA3.0 or pcDNA3.1 plasmid vectors.” for “respectively.”
as §2
The AlphaLISA Surefire Ultra extracellular signal‐regulated kinase 1/2 (ERK1/2) phosphorylation (pERK1/2) assay kit (PerkinElmer Life and Analytical Sciences) was used to measure pERK1/2 in cell lysates after agonist stimulation. […] Samples were read using an Envision plate reader (PerkinElmer). […]

| EC50 (CRF1 receptor (hCRF1α) [1]; IP1, hCRF1α, Cos7, 90 min at 37°C, 50 mmol/L LiCl, 1 pmol/L to 10 µmol/L agonist, mean ± SEM, n = 5) [nM] | EC50 (CRF1 receptor (hCRF1α) [2]; pERK1/2, hCRF1α, Cos7, 7 min at 37°C, 1 pmol/L to 1 µmol/L agonist, mean ± SEM, n = 5) [nM] | Substance | concentration‐dependent increase in IP1 accumulation (CRF1 receptor (hCRF1α) [1]; CRF1 receptor) | concentration‐dependent increase in pERK1/2 (CRF1 receptor (hCRF1α) [2]; CRF1 receptor) |
| --- | --- | --- | --- | --- |
|  |  | IVLSLDVPIGLLQILLEQARARAAREQATTNARILARVGHC-NH2 (C-terminus assumed) [UCN2] | not UCN2 and UCN3 exhibited a concentration‐dependent increase | not UCN2 and UCN3 exhibited a concentration‐dependent increase |
| 7.76 | 22.9 | DNPSLSIDLTFHLLRTLLELARTQSQRERAEQNRIIFDSV-NH2 [UCN1] |  |  |

— article PMC7290078, “Agonist bias and agonist‐dependent antagonism at corticotrophin releasing factor receptors” (Pharmacology Research & Perspectives, 2020)
